Experimental data published in patent publication US10344060B2 (priority 2013, dated 2019).
Entries after “also recorded” stand apart in the source; their conditions may differ. Like-named read-outs stand apart in the source and are kept apart here.

Assays:
[1] = biological target: T1, hNav1.7 (Homo sapiens, UniProt Q15858); assay: cell-based; details: ratio of IonWorks Quattro IC50 values, Nav1.4 over Nav1.7
[2] = biological target: T1, hNav1.7; assay: cell-based; format: cell-based; details: Table 15; read-out: PX hNav1.7 Tonic IC50
[3] = biological target: hNav1.4 (Homo sapiens, UniProt P35499); assay: cell-based; format: cell-based; details: PX
[4] = biological target: hNav1.6 (Homo sapiens, UniProt Q9UQD0); assay: cell-based; format: cell-based
Chain of hNav1.6 (Q9UQD0 whole entry): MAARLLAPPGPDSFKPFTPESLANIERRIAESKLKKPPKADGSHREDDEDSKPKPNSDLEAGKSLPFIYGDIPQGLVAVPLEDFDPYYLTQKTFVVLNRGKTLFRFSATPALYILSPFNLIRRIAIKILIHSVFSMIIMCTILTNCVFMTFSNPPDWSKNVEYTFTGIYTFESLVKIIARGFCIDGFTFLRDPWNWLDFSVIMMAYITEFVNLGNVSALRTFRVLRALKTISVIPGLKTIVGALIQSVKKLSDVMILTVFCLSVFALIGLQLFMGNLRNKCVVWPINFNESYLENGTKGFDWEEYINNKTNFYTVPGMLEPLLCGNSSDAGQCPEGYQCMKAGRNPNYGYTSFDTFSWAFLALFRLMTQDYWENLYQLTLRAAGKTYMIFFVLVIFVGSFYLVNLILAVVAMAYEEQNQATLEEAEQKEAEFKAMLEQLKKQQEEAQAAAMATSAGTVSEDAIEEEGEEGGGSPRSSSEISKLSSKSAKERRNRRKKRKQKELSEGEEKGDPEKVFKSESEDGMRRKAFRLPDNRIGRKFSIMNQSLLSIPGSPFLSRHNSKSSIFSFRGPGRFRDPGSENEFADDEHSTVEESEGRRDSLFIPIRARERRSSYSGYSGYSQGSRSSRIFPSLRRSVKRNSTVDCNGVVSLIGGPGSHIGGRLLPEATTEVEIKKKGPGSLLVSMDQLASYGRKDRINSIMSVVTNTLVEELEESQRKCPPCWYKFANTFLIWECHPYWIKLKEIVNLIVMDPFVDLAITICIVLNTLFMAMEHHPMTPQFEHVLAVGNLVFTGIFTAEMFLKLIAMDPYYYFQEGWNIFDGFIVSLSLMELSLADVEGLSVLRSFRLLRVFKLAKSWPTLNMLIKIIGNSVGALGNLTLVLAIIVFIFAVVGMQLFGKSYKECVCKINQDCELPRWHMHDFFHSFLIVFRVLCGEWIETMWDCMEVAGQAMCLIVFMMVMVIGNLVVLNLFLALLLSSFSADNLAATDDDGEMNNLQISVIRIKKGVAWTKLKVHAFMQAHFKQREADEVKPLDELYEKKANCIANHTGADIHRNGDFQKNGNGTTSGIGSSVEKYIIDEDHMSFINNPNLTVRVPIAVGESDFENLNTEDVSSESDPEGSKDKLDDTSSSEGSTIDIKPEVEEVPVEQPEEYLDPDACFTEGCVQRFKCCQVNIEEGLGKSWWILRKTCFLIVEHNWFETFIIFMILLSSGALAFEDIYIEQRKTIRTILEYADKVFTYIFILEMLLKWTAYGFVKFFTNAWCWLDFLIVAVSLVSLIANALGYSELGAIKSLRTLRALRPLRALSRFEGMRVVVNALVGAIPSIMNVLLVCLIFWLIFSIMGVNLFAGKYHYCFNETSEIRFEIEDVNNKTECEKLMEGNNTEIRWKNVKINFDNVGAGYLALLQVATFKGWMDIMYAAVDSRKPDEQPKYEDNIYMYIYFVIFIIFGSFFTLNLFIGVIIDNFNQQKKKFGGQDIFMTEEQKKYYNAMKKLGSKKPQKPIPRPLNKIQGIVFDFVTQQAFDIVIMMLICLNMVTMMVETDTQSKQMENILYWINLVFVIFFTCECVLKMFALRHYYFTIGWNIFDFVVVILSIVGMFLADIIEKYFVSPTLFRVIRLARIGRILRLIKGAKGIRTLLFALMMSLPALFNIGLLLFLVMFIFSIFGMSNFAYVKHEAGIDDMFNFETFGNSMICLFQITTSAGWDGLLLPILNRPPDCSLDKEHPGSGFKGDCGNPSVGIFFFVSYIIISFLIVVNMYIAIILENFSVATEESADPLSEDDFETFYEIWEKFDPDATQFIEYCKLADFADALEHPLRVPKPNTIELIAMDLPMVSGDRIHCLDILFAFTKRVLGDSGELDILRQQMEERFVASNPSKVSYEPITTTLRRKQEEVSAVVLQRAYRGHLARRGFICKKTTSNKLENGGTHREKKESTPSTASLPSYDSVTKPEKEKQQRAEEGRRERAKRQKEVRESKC

[5] = biological target: T1, hNav1.7; assay: cell-based; format: cell-based
[6] = tested on: TTX-sensitive Nav channels in mouse DRG neuron
[7] = tested on: TTX-sensitive Nav channels in Sprague Dawley rat DRG neuron
[8] = human plasma, 37° C., incubation 0 hr (normalisation point)
[9] = cyno plasma, 37° C., incubation 0 hr (normalisation point)
[10] = mouse plasma, 37° C., incubation 0 hr (normalisation point)
[11] = 1 mg/kg s.c.
[12] = tested on: male CD-1 mice
[13] = tested on: male CD-1 mice; details: 5.0 mg/kg s.c.
[14] = tested on: male CD-1 mice; details: for terminal exposure (peptide plasma concentration): 2 h post peptide injection
[15] = tested on: male Sprague-Dawley rats; details: 5.0 mg/kg s.c.
[16] = tested on: male Sprague-Dawley rats; details: 5.0 mg/kg s.c.; 2 h post peptide injection
[17] = in vivo; details: male, CD-1, mouse, sc
[18] = in vivo; details: male, Sprague-Dawley, rat, sc, 5 mg/kg
[19] = biological target: NaV1.7 (Homo sapiens, UniProt Q15858); details: read-out: EC50, impairs fast inactivation; cited from earlier work
Chain of NaV1.7 (Q15858 whole entry): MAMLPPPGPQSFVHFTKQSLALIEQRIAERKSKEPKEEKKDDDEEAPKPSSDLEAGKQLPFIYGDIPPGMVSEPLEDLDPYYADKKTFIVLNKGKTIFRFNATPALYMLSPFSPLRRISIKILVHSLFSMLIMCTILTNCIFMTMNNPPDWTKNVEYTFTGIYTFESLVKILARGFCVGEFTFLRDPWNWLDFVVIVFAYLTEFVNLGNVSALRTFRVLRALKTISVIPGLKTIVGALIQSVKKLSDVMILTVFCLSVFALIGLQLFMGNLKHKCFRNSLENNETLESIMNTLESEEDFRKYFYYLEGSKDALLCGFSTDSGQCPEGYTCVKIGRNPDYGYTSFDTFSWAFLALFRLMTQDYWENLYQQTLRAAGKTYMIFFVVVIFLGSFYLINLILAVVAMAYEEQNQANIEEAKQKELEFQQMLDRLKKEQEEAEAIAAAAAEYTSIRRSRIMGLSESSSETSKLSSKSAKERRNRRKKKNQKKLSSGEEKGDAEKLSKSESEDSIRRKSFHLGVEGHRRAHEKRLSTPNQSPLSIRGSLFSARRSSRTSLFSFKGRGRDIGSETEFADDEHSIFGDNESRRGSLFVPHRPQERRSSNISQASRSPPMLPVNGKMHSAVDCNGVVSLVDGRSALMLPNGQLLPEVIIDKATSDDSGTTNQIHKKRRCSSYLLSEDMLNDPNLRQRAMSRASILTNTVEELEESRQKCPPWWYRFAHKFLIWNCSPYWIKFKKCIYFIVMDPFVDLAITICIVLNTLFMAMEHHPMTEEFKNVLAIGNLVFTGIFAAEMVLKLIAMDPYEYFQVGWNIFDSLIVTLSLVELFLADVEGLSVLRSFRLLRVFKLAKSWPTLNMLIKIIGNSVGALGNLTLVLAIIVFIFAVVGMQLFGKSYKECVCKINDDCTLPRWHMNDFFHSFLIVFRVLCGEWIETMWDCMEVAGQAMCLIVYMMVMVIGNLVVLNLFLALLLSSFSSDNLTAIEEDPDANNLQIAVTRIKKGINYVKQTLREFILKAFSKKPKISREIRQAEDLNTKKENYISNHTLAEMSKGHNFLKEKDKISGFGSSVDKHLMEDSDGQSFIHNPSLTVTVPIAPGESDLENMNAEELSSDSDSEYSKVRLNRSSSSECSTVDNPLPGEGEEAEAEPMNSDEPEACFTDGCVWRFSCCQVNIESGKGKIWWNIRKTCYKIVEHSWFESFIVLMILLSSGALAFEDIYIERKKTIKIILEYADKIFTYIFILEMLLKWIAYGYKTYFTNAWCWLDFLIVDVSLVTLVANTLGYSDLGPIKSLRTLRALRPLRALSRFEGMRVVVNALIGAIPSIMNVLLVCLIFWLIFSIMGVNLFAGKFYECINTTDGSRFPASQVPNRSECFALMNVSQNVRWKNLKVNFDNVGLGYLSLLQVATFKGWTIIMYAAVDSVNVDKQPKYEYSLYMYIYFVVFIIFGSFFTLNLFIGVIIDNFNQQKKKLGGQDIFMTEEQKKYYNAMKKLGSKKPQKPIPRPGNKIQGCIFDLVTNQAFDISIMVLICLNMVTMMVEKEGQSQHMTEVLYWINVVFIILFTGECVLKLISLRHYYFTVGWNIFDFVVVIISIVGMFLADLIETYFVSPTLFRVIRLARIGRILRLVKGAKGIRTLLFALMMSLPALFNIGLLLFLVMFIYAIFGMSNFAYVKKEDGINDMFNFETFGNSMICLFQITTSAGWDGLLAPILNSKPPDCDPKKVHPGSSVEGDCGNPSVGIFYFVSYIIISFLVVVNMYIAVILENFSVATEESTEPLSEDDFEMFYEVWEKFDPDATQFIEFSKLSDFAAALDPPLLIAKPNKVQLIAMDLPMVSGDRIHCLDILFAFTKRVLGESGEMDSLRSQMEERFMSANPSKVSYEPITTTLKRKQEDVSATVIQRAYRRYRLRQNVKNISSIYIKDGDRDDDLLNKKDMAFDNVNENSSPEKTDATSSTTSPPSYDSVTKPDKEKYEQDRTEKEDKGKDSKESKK

[20] = tested on: TTX-sensitive sodium currents in adult rat DRG neurons; details: cited from earlier work
[21] = tested on: TTX-resistant VGSCs; details: cited from earlier work
[22] = tested on: mouse saphenous nerve C-fibers
[23] = biological target: Nav1.3 (Rattus norvegicus, UniProt P08104); details: read-out: TTX IC50; cited from earlier work
[24] = biological target: Nav1.4 (Rattus norvegicus, UniProt P15390); details: read-out: TTX IC50; cited from earlier work
[25] = biological target: Nav1.6 (Rattus norvegicus, UniProt O88420); details: read-out: TTX IC50; cited from earlier work
[26] = biological target: Nav1.7 (Rattus norvegicus, UniProt O08562); details: read-out: TTX IC50; cited from earlier work
[27] = biological target: Nav1.8 (Rattus norvegicus, UniProt Q62968); details: read-out: TTX IC50; cited from earlier work
[28] = tested on: rats; details: rat, in vivo; cited from earlier work
[29] = tested on: rats; details: rat, in vivo, 0.1 mg/kg; cited from earlier work
[30] = rat plasma, 37° C., incubation time 0 hr (normalization point)
[31] = 0.1, 0.3, and 1.0 mg/kg s.c., 1-hour pre-treatment

T1 sequence (Q15858 whole entry): as above

For `CC[C@H](C)[C@H](NC(=O)[C@H](CCCCN)NC(=O)[C@H](CCCNC(=N)N)NC(=O)[C@@H]1CSSC[C@@H]2NC(=O)[C@H](C)NC(=O)[C@H](CCCNC(=N)N)NC(=O)[C@H](CCCCN)NC(=O)[C@H](CO)NC(=O)[C@H](CC(=O)O)NC(=O)[C@@H]3CSSC[C@H](NC(=O)[C@H](CCC(=O)O)NC(=O)[C@H](CC(C)C)NC(=O)CNC(=O)[C@H](CCC(=O)O)NC(=O)[C@H](CSSC[C@H](NC(=O)[C@@H](N)Cc4ccc(O)cc4)C(=O)N[C@@H](CCC(N)=O)C(=O)N[C@@H](CCCCN)C(=O)N[C@@H](Cc4c[nH]c5ccccc45)C(=O)N[C@@H](CCSC)C(=O)N[C@@H](Cc4c[nH]c5ccccc45)C(=O)N[C@@H]([C@@H](C)O)C(=O)N3)NC2=O)C(=O)N[C@@H](CCCCN)C(=O)N[C@@H](CC(C)C)C(=O)N[C@@H](Cc2c[nH]c3ccccc23)C(=O)N1)C(=O)N[C@@H](Cc1c[nH]c2ccccc12)C(N)=O` [compound 112], which Nav1.4/Nav1.7 [1] is on record?
Its Nav1.4/Nav1.7 is 178.

And the IC50 [2]?
Its IC50 is 1.59 nM.

What about the “selectivity against hNav1.4 relative to hNav1.7” value [3] of the same compound?
The value was over 1000 fold.

What about the “selectivity for Nav1.7 over Nav1.6” value ([4]; PatchXpress) of the same compound?
Its value is 454 fold.

What about the Nav1.6/Nav1.7 ([4]; Table 15, ratio of PX tonic IC50 values) of the same compound?
The Nav1.6/Nav1.7 was 454.

And the IC50 ([4]; Table 15, read-out: PX hNav1.6 Tonic IC50)?
The IC50 was 720 nM.

What about the “block of hNav1.7 current” value ([5]; 100 nM) of the same compound?
The value was “approximately 80%”.

What about the “block of hNav1.7 current, in words” value ([5]; 100 nM) of the same compound?
The value was “did not completely block Nav1.7 current; also recorded: only partial inhibition”.

What about the 1.x/1.7 ([5]; partially inactivated, hNav1.7 / hNav1.7) of the same compound?
Its 1.x/1.7 is 1.

And the 1.x/1.7 [6]?
Its 1.x/1.7 is 1213.

What about the “loss in potency in mouse DRG neurons relative to the human clone of Nav1.7” value ([6]; TTX-sensitive current) of the same compound?
The value was about 1000 fold.

And the 1.x/1.7 ([6]; partially inactivated, mTTX-S (fresh DRG) / hNav1.7)?
Its 1.x/1.7 is 917.

What about the IC50 [7] of the same compound?
The IC50 was 261 nM.

What about the 1.x/1.7 ([7]; partially inactivated, rTTX-S / hNav1.7) of the same compound?
Its 1.x/1.7 is 1135.

What about the “% Peptide Remaining” value [8] of the same compound?
The value was 100%.

What about the “% Peptide Remaining” value [9] of the same compound?
Its value is 100%.

And the “% Peptide Remaining” value [10]?
Its value is 100%.

And the “plasma concentration over the in vitro hNav1.7 IC50 (PX)” value ([11]; CD-1 mice, for 3 h)?
Its value is 26 fold.

What about the tolerability ([11]; mice) of the same compound?
Its tolerability is “tolerated”.

And the terminal plasma exposure ([12]; 0.1 mg/kg s.c., 45 min post-formalin injection, mean±SEM)?
The terminal plasma exposure was 0.0278 ± 0.0105 µM.

And the terminal plasma exposure ([12]; 0.3 mg/kg s.c., 45 min post-formalin injection)?
The terminal plasma exposure was 0.121 ± 0.0411 µM.

And the “pain response relative to the vehicle, first phase” value ([12]; 1 mg/kg s.c., 1-hour pre-treatment)?
The value was “may have slightly increased the pain response”.

And the terminal plasma exposure ([12]; 1.0 mg/kg s.c., 45 min post-formalin injection)?
Its terminal plasma exposure is 0.412 ± 0.0858 µM.

And the “plasma concentration over the IC50 for blocking TTX-S current in mouse DRG neurons (WCPC)” value ([12]; 5.0 mg/kg s.c.)?
Its value is “about 10 fold”.

What about the terminal plasma exposure ([12]; 5.0 mg/kg s.c., 45 min post formalin injection) of the same compound?
The terminal plasma exposure was 2.63 ± 0.777 µM.

And the terminal plasma exposure ([13]; 2 h post peptide injection)?
The terminal plasma exposure was 1.75 ± 0.536 µM.

What about the “thermal latency compared to vehicle (PBS)” value ([13]; CFA thermal hyperalgesia, male CD-1 mice) of the same compound?
The value was “no effect”.

What about the “terminal exposure (peptide plasma concentration)” value (“terminal exposure” for short) ([14]; 0.1 mg/kg s.c.) of the same compound?
Its value is 0.0248 ± 0.00668 µM.

And the “terminal exposure” value ([14]; 0.3 mg/kg s.c.)?
The value was 0.121 ± 0.0296 µM.

And the “terminal exposure” value ([14]; 1.0 mg/kg s.c.)?
The value was 0.419 ± 0.226 µM.

And the “terminal exposure” value ([14]; 5.0 mg/kg s.c.)?
Its value is 4.73 ± 0.584 µM.

What about the “total basic movement component of locomotor activity” value [14, 31] of the same compound?
The value was “No doses of peptide significantly decreased exploratory behavior”.

What about the “total rearing component of locomotor activity” value [14, 31] of the same compound?
The value was “No doses of peptide significantly decreased exploratory behavior”.

And the “total basic movement, total fine movement, total rearing, or total time rearing” value ([14]; 0.1, 0.3, or 1.0 mg/kg s.c., 1-hour pre-treatment)?
Its value is “no effect”.

And the “effect in the first or acute phase (0-5 min)” value ([15]; 1-hour pre-treatment, male Sprague-Dawley rats)?
Its value is “no effect”.

And the terminal plasma exposure ([15]; 45 min post-formalin injection)?
Its terminal plasma exposure is 1.18 ± 0.156 µM.

What about the “terminal exposure” value [16] of the same compound?
The value was 0.994 ± 0.184 µM.

And the level at time molar at 2 h ([17]; 0.1 mg/kg)?
The level at time molar at 2 h was 24.8 ± 6.68 nM.

And the level at time molar at 2 h ([17]; 0.3 mg/kg)?
The level at time molar at 2 h was 121 ± 29.6 nM.

And the level at time molar at 2 h ([17]; 1 mg/kg)?
Its level at time molar at 2 h is 419 ± 226 nM.

What about the level at time molar at 2 h [18] of the same compound?
The level at time molar at 2 h was 994 ± 184 nM.

With OD1 [OD 1] as the compound, how does the EC50 [19] read?
The EC50 was 4.5 nM.

For Huwentoxin-IV [HWTX-IV], which IC50 [20] is on record?
The IC50 was 30 nM.

And the “effect on TTX-resistant VGSCs” value [21]?
The value was “no effect”.

With `NC1=N[C@H](O)[C@H]2[C@H]3O[C@]4(O)O[C@@H]([C@@H](O)[C@@]2(N1)[C@@H]4O)[C@]3(O)CO` [TTX, tetrodotoxin] as the compound, how does the “action potential firing, in words” value [22] read?
The value was “completely blocked action potential firing”.

What about the IC50 [23] of the same compound?
The IC50 was 2 to 15 nM.

What about the IC50 [24] of the same compound?
The IC50 was 5 nM.

And the IC50 [25]?
The IC50 was 1 nM.

What about the IC50 [26] of the same compound?
Its IC50 is 4 nM.

What about the IC50 [27] of the same compound?
The IC50 was over 50000 nM.

Which “efficacy in mechanical hyperalgesia study” value [28] does the source give for “YCQKWMWTCDSERKCCEGMVCRLWCKKKLW [ProTx-II]” here?
Its value is “not efficacious”.

What about the tolerability [29] of the same compound?
The tolerability was “lethal”.

For `CC[C@H](C)[C@H](NC(=O)[C@H](CO)NC(=O)[C@H](CCCCN)NC(=O)[C@H](CCCNC(=N)N)NC(=O)[C@@H]1CSSC[C@@H]2NC(=O)[C@H](C)NC(=O)[C@H](CCCNC(=N)N)NC(=O)[C@H](CCCCN)NC(=O)[C@H](CO)NC(=O)[C@H](CC(=O)O)NC(=O)[C@@H]3CSSC[C@H](NC(=O)[C@H](CCC(=O)O)NC(=O)[C@H](CC(C)C)NC(=O)CNC(=O)[C@H](CCC(=O)O)NC(=O)[C@H](CSSC[C@H](NC(=O)[C@@H](N)Cc4ccc(O)cc4)C(=O)N[C@@H](CCC(N)=O)C(=O)N[C@@H](CCCCN)C(=O)N[C@@H](Cc4c[nH]c5ccccc45)C(=O)N[C@@H](CCSC)C(=O)N[C@@H](Cc4c[nH]c5ccccc45)C(=O)N[C@@H]([C@@H](C)O)C(=O)N3)NC2=O)C(=O)N[C@@H](CCCCN)C(=O)N[C@@H](CC(C)C)C(=O)N[C@@H](Cc2c[nH]c3ccccc23)C(=O)N1)C(N)=O` [SEQ ID NO: 138, [Glu20,Ser28]JzTx-V(1-29)], which “% Peptide Remaining” value [30] is on record?
The value was 100%.
